Experimental data: patent US20260374739A1, “SMALL MOLECULAR WEIGHT CHEMICAL COMPOUND TO ANTAGONIZE EPH-EPHRIN TETRAMERIZATION AND INHIBIT BIDIRECTIONAL SIGNALING” (THE BOARD OF REGENTS OF THE UNIVERSITY OF TEXAS SYSTEM, priority 2022, published 2026)
“And” between values parts separate entries of the source, which are not always exact repeats. Equal entries are not always repeated. Where two headings read alike, the source gives them in different places.

Biological target: T1, EphrinB2-EphB1 (Homo sapiens, UniProt P54762)
T1 construct: soluble human EphB1-His, EphB2-His, and EphB4-His ectodomains; commercially available human EphrinB1-Fc (EB1), EphrinB2-Fc (EB2), and EphrinB3-Fc (EB3) ectodomain proteins; purchased
T1 sequence (P54762 18-540 limits assumed): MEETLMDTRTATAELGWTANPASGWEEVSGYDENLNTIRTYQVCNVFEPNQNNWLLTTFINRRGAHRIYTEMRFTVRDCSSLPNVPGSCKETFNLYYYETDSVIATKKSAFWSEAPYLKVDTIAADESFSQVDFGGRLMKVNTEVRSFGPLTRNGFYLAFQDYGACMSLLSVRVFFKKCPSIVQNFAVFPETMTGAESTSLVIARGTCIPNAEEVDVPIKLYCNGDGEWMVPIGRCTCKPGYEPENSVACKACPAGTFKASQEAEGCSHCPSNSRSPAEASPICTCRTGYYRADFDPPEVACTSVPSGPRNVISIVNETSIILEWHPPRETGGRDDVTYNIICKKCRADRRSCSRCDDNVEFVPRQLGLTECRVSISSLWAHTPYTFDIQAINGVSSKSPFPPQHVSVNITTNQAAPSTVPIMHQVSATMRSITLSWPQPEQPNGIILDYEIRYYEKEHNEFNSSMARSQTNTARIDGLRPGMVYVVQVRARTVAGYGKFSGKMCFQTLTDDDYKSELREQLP
Assay: Octet, immobilized human EphrinB2 binding to 50 nM soluble human EphB1
Procedure: Studies were conducted to confirm that A20 chemicals can effectively target the human Eph/Ephrin proteins. Octet system was used to first characterize the biophysical interactions of the human B class Eph and Ephrin proteins, and then was tested to assess how A20 may disrupt the interactions. Since the human and rodent proteins are highly conserved, and essentially identical, with EphB2 sharing 99.5% identity between human and mouse, with only 5 of ~1,000 amino acids different, any species-specific differences were not anticipated. Therefore, commercially available human EphrinB1-Fc (EB1), EphrinB2-Fc (EB2), and EphrinB3-Fc (EB3) ectodomain proteins were sparsely immobilized onto biosensors and then exposed to 50 nM of soluble human EphB1-His, EphB2-His, and EphB4-His ectodomains for 800 sec association and 1,000 sec dissociation steps with a total of nine different interactions analyzed. In the absence of A20 chemical, the immobilized human EphrinB proteins bound to their appropriate human EphB target proteins; with EphrinB1 only bound EphB1 and EphB2, EphrinB2 bound all three EphB1, EphB2, and EphB4, and EphrinB3 only bound EphB1 and EphB2 (FIG. 19A-19B).
The Octet studies shown in FIG. 19A-19F, and FIG. 20A-20C, and Table 2 using human proteins involved runs in which 1, 10, and 100 μM concentrations of the A20.2×HCl salt were included to determine how compound would affect binding kinetics. The sensorgrams for immobilized human EphrinB2 binding to EphB2 and EphB4 with 0, 1, 10, and 100 μM concentrations of A20 salt provide good examples of how the compound can alter Eph-Ephrin protein-protein interaction dynamics. […] This indicates the effective/relative IC50 for A20 is well below 1 μM (more accurate IC50 calculations are provided below). Notwithstanding, if just the sensorgram responses for 0 and 1 μM A20 are analyzed for absolute IC50 calculations (FIG. 21B), it is clear the compound is a much stronger inhibitor of the EB2-EphB2 interaction whether assessed near the end of association step (blue star), shortly after start of dissociation step (gold star), or by AUC, as all provide absolute IC50 values −1 μM. […] For EphB2-EB2, the slope went from 20° to 10° in the presence of A20 and for EphB4-EB2 from 5° to 3°. The reduced slope later in the association step indicates the A20 compound is specifically affecting accumulation of the stable tetramer.
Addition of compound also altered dissociation kinetics. […] This is referred to as the “unsurmountable” component of the Eph-Ephrin interaction (FIG. 21C). Additionally, AUC data was graphed for these runs (FIG. 21D). […] For EB2-EphB4, the dimer:tetramer ratio was 83:8 in the presence of A20 and was not much different from the no compound control run because it is already a strong dimer-driven interaction. […] A similar though more muted effect of A20 on tetramer accumulation was also observed for the other interactions of immobilized human EphrinB binding to soluble human EphB1 and EphB2 ectodomains (FIG. 22). The inhibitory effect of A20 is strongest on the EB2-EphB2 interaction with absolute IC50 reaching 1 μM, followed by the EB2-EphB1 interaction with absolute IC50-10 μM. […] The “unsurmountable” component of the EB2-EphB1 interaction was-50% of the tetramer species (14:41) whereas that for EB2-EphB2 interaction is-30%.
Further to the experiments listed above, a series of dose-response experiments were conducted to determine the IC50 of a selected A20 chemical (A20-1) on the kinetics of human EphrinB2 ligand ectodomain protein binding to its cognate human EphB1, EphB2, and EphB4 receptor ectodomain proteins. FIG. 74A-74C are representative sensorgrams showing the effect of 0, 0.1, 0.2, 0.4, 0.8, 1.6, and 3.2 μM, concentrations of the 2×HCl salt of A20-I along with a 10 μM max standard (also A20-1) on three different Ephrin-EphB interactions (e.g., EphB1 in FIG. 74A, EphB2 in FIG. 74B and EphB4 in FIG. 74C). […]

[1] = Table B, EphrinB2-EphB1, read-out: Relative Association IC50 (300 sec)

IC50 (Table B, EphrinB2-EphB1, read-out: Absolute AUC/IC50) | IC50 (Table B, EphrinB2-EphB1, read-out: Absolute Dissociation IC50 (450 sec)) | IC50 (Table B, EphrinB2-EphB1, read-out: Relative AUC/IC50) | IC50 (Table B, EphrinB2-EphB1, read-out: Relative Dissociation IC50 (450 sec)) | Compound | IC50 (A20 salt, read-out: absolute IC50) | IC (maximum) (read-out: concentration producing maximum inhibition) | IC50 [1]
 |  |  |  | Oc1c(Br)cc(CN2CCOCC2)c2cccnc12 [Compound 5, 7-bromo-5-(morpholinomethyl)quinolin-8-ol] | ~10000 nM | 10 µM | 
 |  |  |  | Oc1c(I)cc(CN2CCOCC2)c2cccnc12 [Compound 8, 4-((8-hydroxy-7-iodoquinolin-1-ium-5-yl)methyl)morpholin-4-ium chloride] |  |  | 1140 nM
160 nM | 330 nM | 60 nM | 70 nM | Oc1c(Br)cc(CN2CCN(c3ccc(Br)cc3)CC2)c2cccnc12 [Compound 30, 7-bromo-5-((4-(4-bromophenyl)piperazin-1-ium-1-yl)methyl)-8-hydroxyquinolin-1-ium chloride] |  |  | 150 nM and 1100 nM
